Measurements taken from patent US7932422B2, “Use of chlorine guanabenz derivatives for treating polyglutamine expansion associated diseases” (priority 2006, dated 2011).
“Also recorded” adds a separate entry of the source. Counter-ions that a name gives are not always drawn.

Experiments:
[1] = test system: NG108-15 cells; test: vimentin level in NG108-15 neuronal-like cell model of HD; format: cell-based; conditions: drugs added 12 h post-induction, extracts 3 days after treatment
Protocol: (§1) NG108-15 cells were induced for differentiation and T73 expression as described in Lunkes et al, 2002 and treated with the indicated compounds in DMSO at the indicated doses or DMSO alone 12 h post-induction. SDS lysates collected […] were analyzed by SDS-PAGE followed by immunoblot with Htt 2B4 and vimentin antibodies. Images were acquired and quantified with the Chemi-Smart system (Vilber Lourmat). Quantification of T73 signals is presented as histograms. Signal from DMSO treated cells is used as a reference and set as 1.
Drugs were added 12 h post-induction at the indicated doses. Protein extracts were collected 3 days after treatment and analyzed by immunoblots. […] The aggregates formed in these cells were below the detection level of the filter retardation assay precluding a robust quantitative analysis of the effects of the molecules on aggregate. However, because both aggregates and pathological symptoms are reversible with blockade of pathological protein expression, it is likely that aggregates in NG108-15 cells will diminish as a consequence of decreased accumulation of T73 by treating neurons with Psi114 or Cl-Psi114.

[2] = test system: yeast prions; format: cell-based; conditions: erg6Δ [PSI+] yeast strain, compound spotted on filter, halo of red [psi-] colonies
[3] = test system: aggregated Htt48 in 293T cells; test: filter retardation assay of lysates of Htt48-transfected 293T cells; format: cell-based; conditions: lysates 48 h post-transfection
[4] = test system: full length endogenous Huntingtin in HD patient lymphoblastoid cell line; test: full length endogenous Huntingtin in HD patient lymphoblastoid cell line; format: cell-based
Excerpt: (§2) Psi114 and Cl-Psi114 reduce polyQ accumulation both in their soluble and insoluble form. In developing therapeutic approaches, targeting specifically the pathogenic fragment of Huntingtin is a fundamental concern because Huntingtin is an essential gene. The inventors tested the effect of active compounds on endogenous full length Huntingtin in the same extracts as tested for the N-terminal fragment of Huntingtin. Psi114 and Cl-Psi114 have no effect on the levels of full length endogenous Huntingtin in 293T cells while these 2 compounds effectively reduce accumulation of the N-terminal pathogenic fragment of Huntingtin (FIG. 1b). Cl-Psi114 has also no effect on the level of full length endogenous Huntingtin in HD patient lymphoblastoid cell line.

[5] = test system: full length endogenous Huntingtin in 293T cells; test: immunoblot of full length endogenous Huntingtin in 293T cells; format: cell-based; conditions: same extracts as for the N-terminal fragment
Protocol: b: 293T cells were transfected with Htt48 and treated with the indicated compounds in DMSO at the indicated doses or DMSO alone 4 h posttransfection. SDS lysates collected 48 h post-transfection were analyzed on a 10% SDS-PAGE followed by immunoblot with Htt 2B4 and vimentin antibodies. To reveal full length Huntingtin, the same extracts were analyzed on a 4.5% SDS-PAGE followed by immunoblot PAGE followed by immunoblot with an oligoclonal mixture of Huntingtin antibodies: 2B4, 4C8 and 2E8.
as §2

[6] = test system: truncated huntingtin with 73Q repeats (T73) in NG108-15 cells; test: NG108-15 neuronal-like cell model of HD, immunoblot of T73; format: cell-based; conditions: drugs added 12 h post-induction, extracts 3 days after treatment
Protocol: as §1
The Guanabenz (Psi114) and Chloroguanabenz (Cl-Psi114) effects were so far tested in actively dividing yeast and 293T cells (Lunkes et al., 1998). Because neurons are the target of Huntington and the threat for accumulation of misfolded proteins being exacerbated in neuronal, post-mitotic cells, the inventors next tested the effect of Psi114 and Cl-Psi114 in NG10815 neuronal-like cell model of HD. NG108-15 cells were induced for expression of truncated huntingtin with 73Q repeats (T73) and differentiation.
Drugs were added 12 h post-induction at the indicated doses. Protein extracts were collected 3 days after treatment and analyzed by immunoblots. […] The aggregates formed in these cells were below the detection level of the filter retardation assay precluding a robust quantitative analysis of the effects of the molecules on aggregate. […]

[7] = test system: N-terminal fragment of Huntingtin derivative with 48 glutamines (Htt48) in 293T cells; test: 293T cells transfected with Htt48, immunoblot of SDS lysates with Htt 2B4 antibody; format: cell-based; conditions: for activity on Htt48 accumulation: 293T cells, up to 100 μM
[8] = test system: 293T cells

N=C(N)N/N=C/c1c(Cl)ccc(Cl)c1Cl [Cl-Psi114, Chloroguanabenz]
vimentin level [1]: remains unaltered
activity in the yeast anti-prion screen [2]: active; also recorded: more active in the yeast anti-prion screen that Psi114
levels of aggregated Htt48 [3]: decrease in a dose dependent manner
effect on level of full length endogenous Huntingtin [4]: no effect
effect on levels of full length endogenous Huntingtin [5]: no effect
T73 level [6]: reduction of T73 in a dose dependant manner

Nc1c(/N=N/c2ccc(-c3ccc(/N=N/c4cc(S(=O)(=O)O)c5ccccc5c4N)cc3)cc2)cc(S(=O)(=O)O)c2ccccc12 [Congo red]
activity in the Htt48 293T system ([7]; dose of 500 μM): barely detectable activity

N=C(N)N [GuHCL, guanidine hydrochloride]
activity in the yeast anti-prion screen [2]: positive control

N=C(N)N/N=C/c1c(Cl)cccc1Cl [Psi114, Guanabenz]
vimentin level [1]: remains unaltered
activity in the yeast anti-prion screen [2]: potent activity against yeast prions; also recorded: active in yeast cells
levels of aggregated Htt48 [3]: decrease in a dose dependent manner; also recorded: delayed
effect on levels of full length endogenous Huntingtin [5]: no effect
T73 level [6]: reduction of T73 in a dose dependant manner

Clc1cccc(Cl)c1N=C1NCCN1 [Psi211, Clonidine]
activity on Htt48 accumulation [7]: completely inactive

c1ccc(C2CC2)c(OCC2=NCCN2)c1 [Psi214, Cirazoline]
toxicity [8]: some toxicity

C1COC(NC(C2CC2)C2CC2)=N1 [Psi215, Rilmenidine]
toxicity [8]: some toxicity

CCC1(C2=NCCN2)Cc2ccccc2O1 (centres unmarked) [Psi216, Efaroxan]
activity on Htt48 accumulation [7]: completely inactive
